Activity calls are given as the source filed them. The rule behind the calls is not given here.
Tests used:
[1] = system: HT-29; assay: Antiproliferative activity against human HT-29 cells after 48 hrs by CCK-8 assay; format: functional, cell-based; settings: HT-29, 48 h
[2] = system: Lewis lung carcinoma cell line; assay: Antiproliferative activity against mouse LLC cells after 48 hrs by CCK-8 assay; format: functional, cell-based
[3] = target: Histone deacetylase 1 (Homo sapiens, UniProt Q13547); assay: Inhibition of recombinant human full length HDAC1 using fluorogenic substrate 3 after 30 mins by fluorescence assay
Sequence of Histone deacetylase 1 (Q13547 whole entry): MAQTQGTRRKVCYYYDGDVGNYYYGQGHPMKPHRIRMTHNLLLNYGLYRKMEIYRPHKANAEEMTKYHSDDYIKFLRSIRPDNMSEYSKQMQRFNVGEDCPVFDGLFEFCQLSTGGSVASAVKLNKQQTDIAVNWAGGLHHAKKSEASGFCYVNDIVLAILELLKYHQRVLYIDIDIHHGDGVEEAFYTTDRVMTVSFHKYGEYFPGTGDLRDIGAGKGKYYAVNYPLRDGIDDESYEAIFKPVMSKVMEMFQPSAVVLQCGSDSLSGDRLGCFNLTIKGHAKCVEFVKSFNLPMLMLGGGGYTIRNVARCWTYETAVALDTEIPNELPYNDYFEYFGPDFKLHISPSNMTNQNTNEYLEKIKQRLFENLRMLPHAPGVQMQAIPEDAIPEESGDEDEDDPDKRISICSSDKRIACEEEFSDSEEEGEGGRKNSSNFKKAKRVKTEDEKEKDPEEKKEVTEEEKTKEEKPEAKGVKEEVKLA

[4] = system: HCT-116; assay: Antiproliferative activity against human HCT116 cells after 48 hrs by CCK-8 assay; format: functional, cell-based; settings: HCT-116, 48 h
[5] = target: T1, Indoleamine 2,3-dioxygenase 1 (Homo sapiens, UniProt P14902); assay: Inhibition of recombinant human GST-tagged IDO1 (1 to 404 residues) at 1 uM using D-Tryptophan as substrate relative to control
Target sequence in this assay (P14902 whole entry, looked up, the tested form may be a part): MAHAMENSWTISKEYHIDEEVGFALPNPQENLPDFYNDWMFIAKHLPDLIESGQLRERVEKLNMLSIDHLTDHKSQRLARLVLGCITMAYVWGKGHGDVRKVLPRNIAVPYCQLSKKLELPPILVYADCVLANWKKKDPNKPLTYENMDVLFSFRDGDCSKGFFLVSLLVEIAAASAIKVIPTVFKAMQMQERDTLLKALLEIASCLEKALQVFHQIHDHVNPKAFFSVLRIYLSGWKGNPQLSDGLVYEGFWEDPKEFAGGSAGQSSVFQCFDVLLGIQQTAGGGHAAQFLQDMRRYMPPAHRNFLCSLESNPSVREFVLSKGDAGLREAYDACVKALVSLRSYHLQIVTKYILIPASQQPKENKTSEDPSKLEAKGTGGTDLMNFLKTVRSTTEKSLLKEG

[6] = system: CT26; assay: Antiproliferative activity against mouse CT26 cells after 48 hrs by CCK-8 assay; format: functional, cell-based; settings: CT26, 48 h
[7] = system: A549; assay: Antiproliferative activity against human A549 cells after 48 hrs by CCK-8 assay; format: functional, cell-based; settings: A549, 48 h
[8] = system: Mus musculus; assay: In vivo inhibition of IDO1 in wild type C57BL/6 mouse assessed as reduction in kynurenine levels in plasma at 100 mg/kg, po administered via gavage after 8 hrs by LC-MS/MS analysis; format: functional; settings: C57BL/6, po
[9] = system: Mus musculus; assay: In vivo inhibition of IDO1 in wild type C57BL/6 mouse assessed as reduction in kynurenine levels in plasma at 100 mg/kg, po administered via gavage measured up to 1 hr by LC-MS/MS analysis; format: functional, organism-based
[10] = system: Lewis lung carcinoma cell line; assay: Antitumor activity against mouse LLC cells implanted in immunocompetent C57BL/6 mouse assessed as tumor growth inhibition at 100 mg/kg, po bid administered via gavage for 14 consecutive days measured every 4 days relative to control; format: functional; settings: 96 h, read-out: TGI
[11] = target: T1, Indoleamine 2,3-dioxygenase 1; assay: Inhibition of recombinant human GST-tagged IDO1 (1 to 404 residues) using D-Tryptophan as substrate
Target sequence in this assay (P14902 whole entry, the tested form may be a part): as the sequence (P14902 whole entry, looked up, the tested form may be a part) above

[12] = AUC (0 to infinity) in Sprague-Dawley rat at 100 mg/kg, po administered as single dose via gavage by LC-MS/MS analysis; format: ADME, organism-based; set-up: dose 100 mg/kg, time infinity, route oral; settings: in vivo
[13] = Half life in Sprague-Dawley rat at 100 mg/kg, po administered as single dose via gavage by LC-MS/MS analysis; format: ADME, organism-based; settings: in vivo
[14] = Cmax in Sprague-Dawley rat at 100 mg/kg, po administered as single dose via gavage by LC-MS/MS analysis; format: ADME, organism-based; set-up: dose 100 mg/kg, route oral; settings: in vivo
[15] = Tmax in Sprague-Dawley rat at 100 mg/kg, po administered as single dose via gavage by LC-MS/MS analysis; format: ADME, organism-based; settings: in vivo
[16] = Half life in immunocompetent C57BL/6 mouse implanted with mouse LLC cells at 100 mg/kg, po bid administered via gavage; format: ADME, organism-based; settings: in vivo
[17] = AUC in immunocompetent C57BL/6 mouse implanted with mouse LLC cells at 100 mg/kg, po bid administered via gavage; format: ADME, organism-based; settings: in vivo
[18] = system: HCT-116; assay: Induction of apoptosis in human HCT116 cells after 48 hrs by Annexin V-FITC/propidium iodide staining based flow cytometry; format: functional, cell-based
[19] = system: HCT-116; assay: Induction of apoptosis in human HCT116 cells at 10 uM after 48 hrs by Annexin V-FITC/propidium iodide staining based flow cytometry relative to control; format: functional
[20] = system: HCT-116; assay: Cell cycle arrest in human HCT116 cells assessed as accumulation at G2/M phase up to 48 hrs by propidium iodide staining based flow cytometry; format: functional
[21] = system: HCT-116; assay: Induction of apoptosis in human HCT116 cells at 20 uM after 48 hrs by Annexin V-FITC/propidium iodide staining based flow cytometry relative to control; format: functional
[22] = system: HCT-116; assay: Induction of apoptosis in human HCT116 cells at 5 uM after 48 hrs by Annexin V-FITC/propidium iodide staining based flow cytometry relative to control; format: functional

| Structure (SMILES) | IC50 [1] [µM] | IC50 [2] [µM] | IC50 [3] [nM] | IC50 [4] [µM] | inhibition [5] [%] | IC50 [6] [µM] | IC50 [7] [µM] | IC50 [11] [nM] | also measured |
| --- | --- | --- | --- | --- | --- | --- | --- | --- | --- |
| O=C(CCCCn1cc(-c2ccc(C(=O)NCCNc3nonc3/C(=N/O)Nc3ccc(F)c(Br)c3)cc2)nn1)NO | > 100 | > 100 | 895 | 37.5 | 88 | > 100 | > 100 | – | – |
| NS(=O)(=O)NCCNc1nonc1/C(=N/O)Nc1ccc(F)c(Br)c1 [EPACADOSTAT] | > 100 | > 100 | – | > 100 | – | > 100 | > 100 | – | inhibition in vivo at 100 mg/kg [8]: 50%; inhibition [9]: Active; inhibition in vivo at 100 mg/kg [10]: 54.3% |
| O=C(/C=C/c1cccc(C(=O)NCCNc2nonc2/C(=N/O)Nc2ccc(F)c(Br)c2)c1)NO | 23.3 | 53.3 | 70.5 | 12.4 | – | 38.9 | 41.7 | 27 | – |
| NS(=O)(=O)NCCNc1nonc1C(=NO)Nc1ccc(F)c(Br)c1 [EPACADOSTAT] | – | – | – | – | – | – | – | – | AUC(0-inf) [12]: 30700 ng·h/mL; half-life [13]: 270 min; Cmax [14]: 5560 ng/mL; Tmax [15]: 48 min; half-life [16]: 270 min; AUC [17]: 70.2 µM·h |
| O=C(CCCCCCn1cc(-c2ccc(C(=O)NCCNc3nonc3/C(=N/O)Nc3ccc(F)c(Br)c3)cc2)nn1)NO | 23.9 | 36 | 23.5 | 29.4 | – | 90.2 | 45.5 | 210 | – |
| O=C(CCCCC(=O)NCCNc1nonc1/C(=N/O)Nc1ccc(F)c(Br)c1)NO | > 100 | > 100 | 308 | 85.4 | – | > 100 | > 100 | 123 | – |
| Nc1ccccc1NC(=O)c1ccc(C(=O)NCCNc2nonc2/C(=N/O)Nc2ccc(F)c(Br)c2)s1 | 20.3 | 18.3 | 1430 | 7.12 | 76 | 38.8 | 14.5 | – | – |
| O=C(CCCC(=O)NCCNc1nonc1/C(=N/O)Nc1ccc(F)c(Br)c1)NO | > 100 | > 100 | 121 | 80.2 | – | > 100 | > 100 | 133 | – |
| Nc1ccccc1NC(=O)c1cccc(C(=O)NCCNc2nonc2/C(=N/O)Nc2ccc(F)c(Br)c2)c1 | 46.4 | 31.4 | 633 | 16.2 | 79 | 25.5 | 27.8 | – | – |
| Nc1ccccc1NC(=O)c1ccc(C(=O)NCCNc2nonc2/C(=N/O)Nc2ccc(F)c(Br)c2)cn1 | 12.2 | 15.1 | 604 | 6.36 | – | 23.3 | 20.7 | 260 | – |
| O=C(CCCCCCC(=O)NCCNc1nonc1/C(=N/O)Nc1ccc(F)c(Br)c1)NO | 14.9 | 56.6 | 47.7 | 4.7 | – | 97.5 | 36 | 140 | Activity [18]: Dose-dependent effect; Activity [19]: 31.1%; Activity [20]: Active; Activity [21]: 44.5%; Activity [22]: 25.5% |
| O=C(CCCCCn1cc(-c2ccc(C(=O)NCCNc3nonc3/C(=N/O)Nc3ccc(F)c(Br)c3)cc2)nn1)NO | > 100 | > 100 | 66.5 | > 100 | 87 | > 100 | > 100 | – | – |
| O=C(/C=C/c1ccc(C(=O)NCCNc2nonc2/C(=N/O)Nc2ccc(F)c(Br)c2)cc1)NO | 14.2 | 21.6 | 46.2 | 5.89 | – | 12.8 | 25.6 | 168 | Activity [18]: Dose-dependent effect; Activity [19]: 45.4%; Activity [20]: Active; Activity [21]: 61.3%; Activity [22]: 26.7% |
| O=C(CCCCCC(=O)NCCNc1nonc1/C(=N/O)Nc1ccc(F)c(Br)c1)NO | 28.7 | 90.1 | 9.2 | 17.5 | – | 95.5 | 40.7 | 113 | – |
| O=C(NO)c1ccc(C(=O)NCCNc2nonc2/C(=N/O)Nc2ccc(F)c(Br)c2)cc1 | 68 | > 100 | 262 | 28.1 | 95 | > 100 | 89.8 | – | – |
